What was measured:
[1] = test system: MDA-MB-231; experiment: Cytotoxicity against human MDA-MB-231 cells assessed as inhibition of cell viability incubated for 72 hrs by SRB assay; type: functional, cell-based; details: MDA-MB-231, 72 h
[2] = test system: HCC1806; experiment: Cytotoxicity against human HCC1806 cells assessed as inhibition of cell viability incubated for 72 hrs by SRB assay; type: functional, cell-based; details: HCC1806, 72 h
[3] = Stability in human plasma assessed as half life at 100 uM by LC-MS/MS analysis; type: ADME, cell-free

Row | half-life at 100 µM [3] [h] | SMILES | IC50 [1] [µM] | IC50 [2] [µM]
1 | – | C=C1C(=O)[C@]23[C@H](OC(=O)C45CC6CC(CC(C6)C4)C5)[C@H]1CC[C@H]2[C@@]12CO[C@]3(O)[C@@H](O)[C@@H]1C(C)(C)CCC2=O | 1.43 | 1.91
2 | – | C=C1C(=O)[C@@]23C(=O)[C@@H]4OC[C@]5(C(=O)CCC(C)(C)[C@@H]45)[C@@H]2CC[C@@H]1[C@H]3OC(=O)Cc1ccc(OC)cc1 | 3.06 | 4.6
3 | – | C=C1C(=O)[C@@]23C(=O)[C@@H]4OC[C@]5(C=CCC(C)(C)[C@@H]45)[C@@H]2CC[C@@H]1[C@H]3OC(=O)c1ccc(N(CCCl)CCCl)cc1 | 2.21 | 3.02
4 | – | C=C1C(=O)[C@@]23C(=O)[C@@H]4OC[C@]5(C(=O)CCC(C)(C)[C@@H]45)[C@@H]2CC[C@@H]1[C@H]3OC(=O)Cc1ccc(OC)c(OC)c1 | 1.81 | 2.58
5 | – | C=C1C(=O)[C@@]23C(=O)[C@@H]4OC[C@]5(C(=O)CCC(C)(C)[C@@H]45)[C@@H]2CC[C@@H]1[C@H]3OC(=O)c1ccc(N(CCCl)CCCl)cc1 | 5.7 | > 10
6 | – | C=C1C(=O)[C@]23[C@H](OC(=O)Cc4ccccc4Br)[C@H]1CC[C@H]2[C@@]12CO[C@]3(O)[C@@H](O)[C@@H]1C(C)(C)CCC2=O | 3.58 | 7.12
7 | – | C=C1C(=O)[C@]23[C@H](OC(=O)Cc4ccc(N(CCCl)CCCl)cc4)[C@H]1CC[C@H]2[C@@]12CO[C@]3(O)[C@@H](O)[C@@H]1C(C)(C)CCC2=O | 7.29 | > 10
8 | – | C=C1C(=O)[C@@]23C(=O)[C@@H]4OC[C@]5(C(=O)CCC(C)(C)[C@@H]45)[C@@H]2CC[C@@H]1[C@H]3OC(=O)C12CC3CC(CC(C3)C1)C2 | 3.26 | 5.59
9 | – | C=C1C(=O)[C@]23[C@H](OC(=O)c4ccc(N(CCCl)CCCl)cc4)[C@H]1CC[C@H]2[C@@]12CO[C@]3(O)[C@@H](O)[C@@H]1C(C)(C)CC[C@@H]2O | 1.67 | 1.32
10 | – | C=C1C(=O)[C@@]23C(=O)[C@@H]4OC[C@]5(C(=O)CCC(C)(C)[C@@H]45)[C@@H]2CC[C@@H]1[C@H]3OC(=O)Cc1cc(OC)c(OC)c(OC)c1 | 2.6 | 5.07
11 | – | C=C1C(=O)[C@]23[C@H](OC(=O)Cc4ccc(OC)c(OC)c4)[C@H]1CC[C@H]2[C@]12C=CCC(C)(C)[C@H]1[C@H](O)[C@@]3(O)OC2 | > 10 | > 10
12 | – | C=C1C(=O)[C@]23[C@H](OC(=O)/C=C/c4ccc(N(C)C)cc4)[C@H]1CC[C@H]2[C@@]12CO[C@]3(O)[C@@H](O)[C@@H]1C(C)(C)CCC2=O | 1.79 | 2.77
13 | – | C=C1C(=O)[C@]23[C@H](OC(=O)c4ccc(N(CCCl)CCCl)cc4)[C@H]1CC[C@H]2[C@@]12CO[C@]3(O)[C@@H](O)[C@@H]1C(C)(C)CCC2=O | 1.72 | 3.64
14 | – | C=C1C(=O)[C@@]23C(=O)[C@@H]4OC[C@]5(C(=O)CCC(C)(C)[C@@H]45)[C@@H]2CC[C@@H]1[C@H]3OC(=O)Cc1ccccc1Br | > 10 | > 10
15 | – | C=C1C(=O)[C@]23[C@H](O)[C@H]1CC[C@H]2[C@@]12CO[C@]3(O)[C@@H](O)[C@@H]1C(C)(C)CCC2=O | 2.07 | 3.56
16 | – | C=C1C(=O)[C@]23[C@H](OC(=O)Cc4ccc(OC)c(OC)c4)[C@H]1CC[C@H]2[C@@]12CO[C@]3(O)[C@@H](O)[C@@H]1C(C)(C)CCC2=O | 8.43 | > 10
17 | – | C=C1C(=O)[C@@]23C(=O)[C@@H]4OC[C@@]5([C@H]4C(C)(C)CC[C@@H]5O)[C@@H]2CC[C@@H]1[C@H]3OC(=O)C12CC3CC(CC(C3)C1)C2 | 1.5 | 2.13

Row | half-life at 100 µM [3] [h] | SMILES | IC50 [1] [µM] | IC50 [2] [µM]
18 | – | C=C1C(=O)[C@]23[C@H](OC(=O)C45CC6CC(CC(C6)C4)C5)[C@H]1CC[C@H]2[C@]12C=CCC(C)(C)[C@H]1[C@H](O)[C@@]3(O)OC2 | 2.42 | 2.61
19 | – | C=C1C(=O)[C@@]23C(=O)[C@@H]4OC[C@]5(C=CCC(C)(C)[C@@H]45)[C@@H]2CC[C@@H]1[C@H]3OC(=O)C12CC3CC(CC(C3)C1)C2 | 3.66 | 5.51
20 | – | C=C1C(=O)[C@]23[C@H](O)[C@H]1CC[C@H]2[C@@]12CO[C@@]3(O)[C@@H](O)[C@@H]1C(C)(C)CC[C@@H]2OC(C)=O | 2.49 | 2.68
21 | 1.45 | C=C1C(=O)[C@]23[C@H](O)[C@H]1CC[C@H]2[C@@]12CO[C@]3(O)[C@@H](O)[C@@H]1C(C)(C)CC[C@@H]2O [ORIDONIN] | 5.31 | 12.6
22 | – | C=C1C(=O)[C@]23[C@H](OC(=O)Cc4ccc(OC)cc4)[C@H]1CC[C@H]2[C@@]12CO[C@]3(O)[C@@H](O)[C@@H]1C(C)(C)CCC2=O | > 10 | > 10
23 | – | C=C1C(=O)[C@]23[C@H](O)[C@H]1CC[C@H]2[C@]12C=CCC(C)(C)[C@H]1[C@H](O)[C@@]3(O)OC2 | 0.87 | 0.91
24 | – | C=C1C(=O)[C@@]23C(=O)[C@@H]4OC[C@]5(C=CCC(C)(C)[C@@H]45)[C@@H]2CC[C@@H]1[C@H]3OC(=O)Cc1cc(OC)c(OC)c(OC)c1 | 3.82 | 5.54
25 | – | C=C1C(=O)[C@]23[C@H](OC(=O)c4ccc(N(CCCl)CCCl)cc4)[C@H]1CC[C@H]2[C@]12C=CCC(C)(C)[C@H]1[C@H](O)[C@@]3(O)OC2 | 1.09 | 1.4
26 | – | C=C1C(=O)[C@@]23C(=O)[C@@H]4OC[C@]5(C=CCC(C)(C)[C@@H]45)[C@@H]2CC[C@@H]1[C@H]3O | 2.78 | 4.01
27 | – | C=C1C(=O)[C@]23[C@H](OC(=O)Cc4cc(OC)c(OC)c(OC)c4)[C@H]1CC[C@H]2[C@]12C=CCC(C)(C)[C@H]1[C@H](O)[C@@]3(O)OC2 | > 10 | > 10
28 | – | C=C1C(=O)[C@@]23C(=O)[C@@H]4OC[C@]5([C@@H](OC(C)=O)CCC(C)(C)[C@@H]45)[C@@H]2CC[C@@H]1[C@H]3OC(=O)C12CC3CC(CC(C3)C1)C2 | 1.41 | 2.39
29 | – | C=C1C(=O)[C@]23[C@H](OC(=O)C45CC6CC(CC(C6)C4)C5)[C@H]1CC[C@H]2[C@@]12CO[C@]3(O)[C@@H](O)[C@@H]1C(C)(C)CC[C@@H]2OC(C)=O | 0.55 | 1.48
30 | – | C=C1C(=O)[C@@]23C(=O)[C@@H]4OC[C@]5(C(=O)CCC(C)(C)[C@@H]45)[C@@H]2CC[C@@H]1[C@H]3OC(=O)Cc1ccc(N(CCCl)CCCl)cc1 | 11.5 | > 10
31 | – | C=C1C(=O)[C@]23[C@H](OC(=O)Cc4cc(OC)c(OC)c(OC)c4)[C@H]1CC[C@H]2[C@@]12CO[C@]3(O)[C@@H](O)[C@@H]1C(C)(C)CCC2=O | > 10 | > 10
32 | – | C=C1C(=O)[C@@]23C(=O)[C@@H]4OC[C@@]5([C@H]4C(C)(C)CC[C@@H]5O)[C@@H]2CC[C@@H]1[C@H]3OC(=O)c1ccc(N(CCCl)CCCl)cc1 | 1.83 | 1.61
33 | – | C=C1C(=O)[C@]23[C@H](OC(=O)Cc4ccc(OC)cc4)[C@H]1CC[C@H]2[C@]12C=CCC(C)(C)[C@H]1[C@H](O)[C@@]3(O)OC2 | > 10 | > 10

From ChEMBL document CHEMBL6134781, “In vitro identification of oridonin hybrids as potential anti-TNBC agents inducing cell cycle arrest and apoptosis by regulation of p21, γH2AX and cleaved PARP” (RSC Med Chem, 2024)
